The assay deals with Dual specificity calcium/calmodulin-dependent 3',5'-cyclic nucleotide phosphodiesterase 1B (Homo sapiens, UniProt Q01064). Description: Ca2+-Calmodulin Dependent PDE Enzyme Assays. How it is done: PDE1B, PDE1A, and PDE1C are cloned and purified following standard protein generation procedures. The assay buffer is prepared to give a final concentration in the assay of 50 mM Tris-HCl, 50 mM MgCl2, 4 mM CaCl2, 0.1% Bovine serum albumin and 6 U/ml Calmodulin in water, at pH 7.5.
Sequence of Dual specificity calcium/calmodulin-dependent 3',5'-cyclic nucleotide phosphodiesterase 1B (Q01064 whole entry): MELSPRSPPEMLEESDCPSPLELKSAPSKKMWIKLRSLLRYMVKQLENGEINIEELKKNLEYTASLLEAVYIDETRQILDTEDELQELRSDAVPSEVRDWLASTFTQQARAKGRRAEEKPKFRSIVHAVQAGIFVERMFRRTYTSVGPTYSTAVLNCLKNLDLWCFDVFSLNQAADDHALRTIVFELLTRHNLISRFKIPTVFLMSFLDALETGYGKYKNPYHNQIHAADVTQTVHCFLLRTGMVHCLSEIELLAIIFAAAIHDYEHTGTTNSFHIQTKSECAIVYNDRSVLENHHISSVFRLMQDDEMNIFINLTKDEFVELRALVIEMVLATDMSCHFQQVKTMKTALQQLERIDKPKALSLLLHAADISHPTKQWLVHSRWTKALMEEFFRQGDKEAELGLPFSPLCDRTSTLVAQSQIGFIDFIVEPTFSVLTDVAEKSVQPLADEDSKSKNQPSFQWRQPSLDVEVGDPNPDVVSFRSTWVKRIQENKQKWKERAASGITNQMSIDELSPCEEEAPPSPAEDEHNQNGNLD

Turning to `CCCCn1c(=O)c2nnc(C3(C4CC4)CC3)n2c2ncc(CO)cc21` [US11180503, Example 11], the IC50 worked out at 0.928 nM.

For the molecule `CCCCn1c(=O)c2nnc(C3(C4CC4)CC3)n2c2ncc(CC)cc21` [US11180503, Example 9], the IC50 is 0.419 nM.

The record behind these values is BindingDB's records for patent US11180503 (ELI LILLY AND COMPANY, 2021).
